Measurements from PMC10067442, “In vivo quantitative high-throughput screening for drug discovery and comparative toxicology” (Disease Models & Mechanisms, 2023).

What was measured:
C. elegans [1] = conditions: total GFP area, days 3 and 7 post chemical exposure
HEK293 cells = assay: HEK293 cell viability (CellTiter-Glo, ATP levels); assay type: cell-based; conditions: Homo sapiens, 24 h post-treatment, screening control, 14 replicate wells
Protocol: Mammalian cell toxicity was evaluated in HEK293 cells (ATCC) using ATP levels as an indicator of metabolically active cells. Assays were performed in 1536-well plates (Greiner white/solid bottom, high base), and luminescence measurements were made on a ViewLux (Perkin Elmer) ([Martinez et al., 2021]; [Solinski et al., 2019]). Assay-ready plates in 1536-well format were prepared as above using the 384-well Echo-compatible source plates; 25 nl of a seven-point titration with 1:5 dilution starting at a high concentration of 2.5–20 mM of compound was added to respective wells with an Echo 555 acoustic dispenser. A titration of digitonin, 20 mM to 610 nM in DMSO (83.3 µM to 2.5 nM final assay concentration), was used as an intraplate cell toxicity control titration. DMSO vehicle and 83.3 μM digitonin final concentration (64 or 32 replicate wells per assay plate, respectively) were used to establish the assay signal window. Plates were stored at −80°C until use and equilibrated to ambient temperature prior to cell dispense. Then, 1500 cells were added at 6 μl assay volume/well (240-fold dilution) across plates with a Multidrop Combi dispenser (Thermo Fisher Scientific) in standard Dulbecco's modified Eagle medium. Cell viability-dependent luminescence levels were read following the addition of 4 μl CellTiter-Glo (Promega) after 24 h incubation with the test compound.

C. elegans strain PE254 [2] = assay: 384-well LSC C. elegans viability assay, life-stage sorted worms on BGs or OP50 live bacteria (assay development); assay type: in vivo, Caenorhabditis elegans
C. elegans strain PE254 [3] = assay: C. elegans LSC qHTS viability assay, Anti-Infectives library primary screen (BG-fed, 384-well); assay type: in vivo, Caenorhabditis elegans
Protocol: Levamisole, ivermectin and albendazole were purchased from Sigma-Aldrich. Stock solutions of all compounds were prepared at 10 mM in DMSO, and ivermectin was diluted to a 10 µM working dilution in DMSO. […] Of these, 284 (38%) are approved for clinical use in the United States, 32 (4%) were previously marketed for use in the United States, and 62 (8%) are used clinically outside of the United States. […] DMSO stock solutions of were arrayed in Echo-qualified 384-well cyclic olefin copolymer plates (Labcyte) in qHTS inter-plate dilution with seven concentrations, 1:5 dilution, resulting in a final concentration range of 2.5–20 mM high concentration titrated to 160 nM to 1.28 µM low concentration ([Yasgar et al., 2008]). ‘Assay-ready’ plates were prepared in 384-well uClear microtiter plates (Greiner BioOne), with compounds acoustically dispensed at 250 nl per well with an Echo 555 in the above inter-plate titration array. Two plates with DMSO added across the compound field at the same volume were prepared as screening controls (‘uniformity plates’). DMSO vehicle control was added to every well of column 1, and levamisole cytotoxicity control was added at a high concentration of 10 mM in wells 1–8 and titrated 1:3, starting at a high concentration of 10 mM to 4.57 µM in wells 9–16 of column 2 of every plate. Additionally, ivermectin, levamisol and albendazole were plated as internal controls on one assay plate in 16-point, 1:2 titration down six replicate columns per compound, starting at a high concentration of 10 µM (ivermectin) or 10 mM (levamisole and albendazole). Assay-ready plates were sealed and frozen at −80°C until use.
C. elegans strain PE254 were collected from 12 NGM plates as above, transferred to 250 ml S medium supplemented with OP50 E. coli pellet collected from 2 l overnight culture, and grown for 5 days at 21°C with vigorous shaking in an Incu-Shaker Mini Shaking Incubator (Benchmark Scientific, Inc.). Eggs were axenized as above and hatched overnight in M9 buffer at 21°C and shaken at 65 rpm. Assay ready plates were thawed and allowed to equilibrate to ambient temperature. BGs in S medium (30 µl/well) at an OD600=0.85 were manually added across plates with a Capp pipette. Synchronized L1 worms from above were collected, diluted and plated at ten worms/30 µl/well with a Capp pipette into assay-ready microtiter plates pre-plated with BGs and compounds (240-fold dilution). […] No ethical approval or guidance is needed for working with nematodes.
Data from the Anti-Infectives screen were normalized by plate to corresponding intra-plate controls as previously described ([Inglese et al., 2006]). Assay statistics were calculated using the same respective controls. Total object ‘GFP’ area (µm^2) and number of worms were normalized to the average signal of DMSO-treated wells as zero percent neutral control, and the average signal of 41.7 µM levamisole-treated wells as −100% activity. In-house software was used to fit the resulting inter-plate titration data to the standard Hill equation, and concentration–response curves were classified by activity as previously described ([Southall et al., 2009]). Curve fits assignments of −1.1, −1.2, −2.1, −2.2 and −3 were considered active and visually confirmed.

C. elegans [4] = system: C. elegans; parameters: method as in Sant'anna et al., 2013; conditions: all life stages, post 7-day treatment; ref Sant'anna et al., 2013; read-out: EC50 (toxic); cited from earlier work
C. elegans strain PE254 [5] = assay: Follow-up 11-point re-test, C. elegans LSC viability; assay type: in vivo, Caenorhabditis elegans; conditions: day 7, screening control in re-test, 4 replicate wells
Protocol: C. elegans strain PE254 were collected from six NGM plates and washed. […] Assay-ready plates were prepared as above with an 11-point, 1:3 titration of 96 compounds identified as active from the qHTS screen based on curve classification and maximum response. […] Data were normalized as above, and concentration–response curves were fit in Prism with nonlinear regression log(agonist) versus response–variable slope (four parameters) fit.

Clc1ccc(C(c2ccc(Cl)cc2)C(Cl)(Cl)Cl)cc1 [DDT, dichlorodiphenyltrichloroethane]
activity in Tox21 sub-library C. elegans qHTS (in words) (C. elegans [1]): potent activity

C[C@@H]1CC[C@@]2(OC1)O[C@H]1[C@@H](O)[C@H]3[C@@H]4CC[C@H]5C[C@@H](O[C@@H]6O[C@H](CO)[C@H](O[C@@H]7O[C@H](CO)[C@@H](O)[C@H](O[C@@H]8OC[C@@H](O)[C@H](O)[C@H]8O)[C@H]7O[C@@H]7O[C@H](CO)[C@H](O)[C@H](O[C@@H]8O[C@H](CO)[C@@H](O)[C@H](O)[C@H]8O)[C@H]7O)[C@H](O)[C@H]6O)[C@H](O)C[C@]5(C)[C@H]4CC[C@]3(C)[C@H]1[C@@H]2C [Digitonin, digitonin]
EC50 (HEK293 cells): 31.3 µM

CCCSc1ccc2nc(NC(=O)OC)[nH]c2c1 [Albendazole]
toxicity (in words) (C. elegans strain PE254 [2]; worms grown on BGs, as early as day 1 for L4 and adult worms, by day 2 for most life stages): significant toxicity | EC50 (C. elegans strain PE254 [3]; Caenorhabditis elegans, 72 h, read-out: Treatment day, EC50 (GFP area)): 0.2 ± 0.3 µM | EC50 (C. elegans strain PE254 [3]; Caenorhabditis elegans, 96 h, read-out: Treatment day, EC50 (GFP area)): 0.8 ± 0.7 µM | EC50 (C. elegans strain PE254 [3]; Caenorhabditis elegans, 120 h, read-out: Treatment day, EC50 (GFP area)): 0.9 ± 0.4 µM | EC50 (C. elegans strain PE254 [3]; Caenorhabditis elegans, 144 h, read-out: Treatment day, EC50 (GFP area)): 0.8 ± 0.4 µM | EC50 (C. elegans strain PE254 [3]; Caenorhabditis elegans, 168 h, read-out: Treatment day, EC50 (GFP area)): 1.1 ± 0.6 µM | EC50 (C. elegans [4]): > 10 µM

c1ccc([C@H]2CN3CCSC3=N2)cc1 [Levamisole]
EC50 values (in words) (C. elegans strain PE254 [2]; all life stages, both media (BGs and live bacteria), 7-day time course): low-micromolar range | EC50 (C. elegans strain PE254 [3]; day 3, intra-plate screening control, averaged from 21 replicates, normalized to 41.7 μM levamisole, read-out: EC50 (GFP area)): 9.37 ± 0.93 µM | EC50 (C. elegans strain PE254 [3]; day 3, intra-plate screening control, averaged from 21 replicates, read-out: EC50 (number of worms)): 5.96 ± 2.4 µM | EC50 (C. elegans strain PE254 [3]; day 7, intra-plate screening control, averaged from 21 replicates, read-out: EC50 (GFP area)): 7.99 ± 1.44 µM | EC50 (C. elegans strain PE254 [3]; day 7, intra-plate screening control, averaged from 21 replicates, read-out: EC50 (number of worms)): 5.74 ± 0.91 µM | activity on C. elegans viability in primary qHTS (in words) (C. elegans strain PE254 [3]; seven-point titration, GFP area): active | EC50 (C. elegans strain PE254 [3]; treatment day 2, internal control, 16-point titration, six replicate wells, read-out: Treatment day, EC50 (GFP area)): 12.7 ± 4.7 µM | EC50 (C. elegans strain PE254 [3]; treatment day 3, internal control, 16-point titration, six replicate wells, read-out: Treatment day, EC50 (GFP area)): 14 ± 5.5 µM | EC50 (C. elegans strain PE254 [3]; treatment day 4, internal control, 16-point titration, six replicate wells, read-out: Treatment day, EC50 (GFP area)): 5.6 ± 1.5 µM | EC50 (C. elegans strain PE254 [3]; treatment day 5, internal control, 16-point titration, six replicate wells, read-out: Treatment day, EC50 (GFP area)): 5.3 ± 0.6 µM | EC50 (C. elegans strain PE254 [3]; treatment day 6, internal control, 16-point titration, six replicate wells, read-out: Treatment day, EC50 (GFP area)): 4.9 ± 0.4 µM | EC50 (C. elegans strain PE254 [3]; treatment day 7, internal control, 16-point titration, six replicate wells, read-out: Treatment day, EC50 (GFP area)): 5 ± 0.8 µM | EC50 (C. elegans strain PE254 [5]; read-out: EC50 using #worms): 2.45 µM | EC50 (C. elegans strain PE254 [5]; read-out: EC50 using GFP area): 2.23 µM

CCOCn1c(-c2ccc(Cl)cc2)c(C#N)c(Br)c1C(F)(F)F [Chlorfenapyr, chlorfenapyr]
activity in Tox21 sub-library C. elegans qHTS (in words) (C. elegans [1]): identified
